test system: HUVEC cells; experiment: Test of in vitro proliferation of HUVEC cells induced with FGF-2; settings: Homo sapiens, read-out: HUVEC Proliferation IC50 (M)
Protocol: Test of In Vitro Proliferation of HUVEC Cells Induced with Fibroblast Growth Factor 2 (FGF-2).
After incubation for 48 hours, the medium is aspirated and replaced with the deprivation medium RPMI1640 mentioned previously. A second stimulation is then performed. The cells are again incubated at 37° C. in the presence of CO2. After incubation for 72 hours, the medium is again aspirated and 100 μl of Cell Titer-GLO™ Luminescent Cell Viability Assay (Promega, G7571) are added over 10 minutes. The amount of ATP present in the cells, measured using a luminometer, is proportional to the number cells per well corresponding to the cell proliferation.

| SMILES | IC50 |
| --- | --- |
| O=c1c2cn[nH]c2c2ccc(-c3ccccc3F)cc2n1CC(F)(F)F [Compound 3, 7-(2-fluorophenyl)-5-(2,2,2-trifluoroethyl)-1,5-dihydro-4H-pyrazolo[4,3-c]quinolin-4-one] | 6.6e-07 M |

target: T1, human MetAP2 (Homo sapiens, UniProt P50579); experiment: MetAP2 enzymatic screening test (isolated enzyme, Met-Pro-Arg-pNa substrate, absorbance at 405 nm); assay type: biochemical; settings: read-out: % inhibition hMETAP2 at 100 nM
T1 construct: made in house; host or cells: Sf9 insect cells (baculovirus)
T1 sequence (P50579 whole entry): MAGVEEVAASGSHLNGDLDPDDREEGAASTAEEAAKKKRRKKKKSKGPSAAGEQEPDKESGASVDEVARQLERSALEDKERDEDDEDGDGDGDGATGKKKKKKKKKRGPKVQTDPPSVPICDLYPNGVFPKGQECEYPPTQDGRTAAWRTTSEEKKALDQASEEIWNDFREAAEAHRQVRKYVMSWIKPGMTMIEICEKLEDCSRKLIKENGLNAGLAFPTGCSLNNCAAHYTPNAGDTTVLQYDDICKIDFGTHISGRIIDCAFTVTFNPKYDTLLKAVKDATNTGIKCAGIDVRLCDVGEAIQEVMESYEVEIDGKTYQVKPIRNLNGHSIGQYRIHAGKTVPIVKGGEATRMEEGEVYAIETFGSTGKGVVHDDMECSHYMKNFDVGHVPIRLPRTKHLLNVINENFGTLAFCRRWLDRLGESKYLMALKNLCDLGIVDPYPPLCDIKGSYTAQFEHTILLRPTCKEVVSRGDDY
Protocol: The compounds according to the invention underwent biochemical studies in order to determine their capacity to inhibit the enzyme methionine-aminopeptidase2 (enzymatic test on isolated enzyme).
MetAP2 Enzymatic Screening Test
For the enzymatic test, human MetAP2 protein was obtained from a culture supernatant of insect cells (sf9) infected with MetAP2 recombinant baculovirus.
Before performing the experiment, dialysis of the MetAP2 supernatant is performed over 24 hours at 4° C. in a buffer (10 mM Hepes, 100 mM KCl, 10% glycerol, pH 7.4) in the presence of EDTA (1 mM) over the first 12 hours.
The dialysis supernatant is recovered and manganese, used as cofactor, is added to a final concentration of 300 μM.
The enzymatic test is a test in two steps.
Consequently, the second step consists in reacting the peptides cleaved in the preceding step with a second peptidase in order to release the chromophore.

| inhibition at 0.1 µM | SMILES |
| --- | --- |
| 45% | CCN(CC)S(=O)(=O)c1ccccc1-c1ccc2c3[nH]ncc3c(=O)n(CC(F)(F)F)c2c1 [Compound 136, N,N-diethyl-2-[4-oxo-5-(2,2,2-trifluoroethyl)-4,5-dihydro-1H-pyrazolo[4,3-c]quinolin-7-yl]benzenesulfonamide] |
| 45% | Cc1cc(N)ncc1-c1ccc2c3[nH]ncc3c(=O)n(CC(F)(F)F)c2c1 [Compound 137, 7-(6-amino-4-methylpyrid-3-yl)-5-(2,2,2-trifluoroethyl)-1,5-dihydro-4H-pyrazolo[4,3-c]quinolin-4-one] |
| 44% | COc1ccc(-c2ccc3c4[nH]ncc4c(=O)n(CC(F)(F)F)c3c2)c(C)n1 [Compound 138, 7-(6-methoxy-2-methylpyrid-3-yl)-5-(2,2,2-trifluoroethyl)-1,5-dihydro-4H-pyrazolo[4,3-c]quinolin-4-one] |
| 44% | Cc1cc(-n2cnnc2)ncc1-c1ccc2c3[nH]ncc3c(=O)n(CC(F)(F)F)c2c1 [Compound 140, 7-(4-methyl-6-[1,2,4]triazol-4-ylpyrid-3-yl)-5-(2,2,2-trifluoroethyl)-1,5-dihydro-4H-pyrazolo[4,3-c]quinolin-4-one] |
| 44% | O=C(c1ccc(-c2ccc3c4[nH]ncc4c(=O)n(CC(F)(F)F)c3c2)cn1)N1CCOCC1 [Compound 141, 7-[6-(morpholine-4-carbonyl)pyrid-3-yl]-5-(2,2,2-trifluoroethyl)-1,5-dihydro-4H-pyrazolo[4,3-c]quinolin-4-one] |
| 43% | COC(=O)Cc1ccccc1-c1ccc2c3[nH]ncc3c(=O)n(CC(F)(F)F)c2c1 [Compound 144, methyl {2-[4-oxo-5-(2,2,2-trifluoroethyl)-4,5-dihydro-1H-pyrazolo[4,3-c]quinolin-7-yl]phenyl}acetate] |
| 42% | CCCc1ncncc1-c1ccc2c3[nH]ncc3c(=O)n(CC(F)(F)F)c2c1 [Compound 146, 7-(4-propylpyrimidin-5-yl)-5-(2,2,2-trifluoroethyl)-1,5-dihydro-4H-pyrazolo[4,3-c]quinolin-4-one] |
| 42% | CCC(=O)Nc1ccc(-c2ccc3c4[nH]ncc4c(=O)n(CC(F)(F)F)c3c2)c(C)n1 [Compound 147, N-{6-methyl-5-[4-oxo-5-(2,2,2-trifluoroethyl)-4,5-dihydro-1H-pyrazolo[4,3-c]quinolin-7-yl]pyrid-2-yl}propionamide] |
| 42% | O=c1c2cn[nH]c2c2ccc(-c3ccccc3-c3cnco3)cc2n1CC(F)(F)F [Compound 148, 7-(2-oxazol-5-ylphenyl)-5-(2,2,2-trifluoroethyl)-1,5-dihydro-4H-pyrazolo[4,3-c]quinolin-4-one] |
| 42% | COc1ncc(-c2ccc3c4[nH]ncc4c(=O)n(CC(F)(F)F)c3c2)c(N(C)C)n1 [Compound 149, 7-(4-dimethylamino-2-methoxypyrimidin-5-yl)-5-(2,2,2-trifluoroethyl)-1,5-dihydro-4H-pyrazolo[4,3-c]quinolin-4-one] |
| 41% | CC(=O)NCc1ccccc1-c1ccc2c3[nH]ncc3c(=O)n(CC(F)(F)F)c2c1 [Compound 151, N-{2-[4-oxo-5-(2,2,2-trifluoroethyl)-4,5-dihydro-1H-pyrazolo[4,3-c]quinolin-7-yl]benzyl}acetamide] |
| 41% | O=c1c2cn[nH]c2c2ccc(-c3ccc(C(O)c4ccccc4)cn3)cc2n1CC(F)(F)F (stereo not drawn) [Compound 152, 7-[5-(hydroxyphenylmethyl)pyrid-2-yl]-5-(2,2,2-trifluoroethyl)-1,5-dihydro-4H-pyrazolo[4,3-c]quinolin-4-one] |
| 41% | COC(=O)c1ccccc1-c1ccc2c3[nH]ncc3c(=O)n(CC(F)(F)F)c2c1 [Compound 156, methyl 2-[4-oxo-5-(2,2,2-trifluoroethyl)-4,5-dihydro-1H-pyrazolo[4,3-c]quinolin-7-yl]benzoate] |
| 40% | COc1cc(-c2ccc3c4[nH]ncc4c(=O)n(CC(F)(F)F)c3c2)ccn1 [Compound 158, 7-(2-methoxypyrid-4-yl)-5-(2,2,2-trifluoroethyl)-1,5-dihydro-4H-pyrazolo[4,3-c]quinolin-4-one] |
| 40% | O=c1c2cn[nH]c2c2ccc(-c3ccccc3Cn3cncn3)cc2n1CC(F)(F)F [Compound 159, 7-(2-[1,2,4]triazol-1-ylmethylphenyl)-5-(2,2,2-trifluoroethyl)-1,5-dihydro-4H-pyrazolo[4,3-c]quinolin-4-one] |
| 38% | CC(C)c1ncncc1-c1ccc2c3[nH]ncc3c(=O)n(CC(F)(F)F)c2c1 [Compound 162, 7-(4-isopropylpyrimidin-5-yl)-5-(2,2,2-trifluoroethyl)-1,5-dihydro-4H-pyrazolo[4,3-c]quinolin-4-one] |
| 38% | O=c1c2cn[nH]c2c2ccc(-c3cccc(F)n3)cc2n1CC(F)(F)F [Compound 163, 7-(6-fluoropyrid-2-yl)-5-(2,2,2-trifluoroethyl)-1,5-dihydro-4H-pyrazolo[4,3-c]quinolin-4-one] |
| 37% | COC(=O)c1cccc(-c2ccc3c4[nH]ncc4c(=O)n(CC(F)(F)F)c3c2)n1 [Compound 164, methyl 6-[4-oxo-5-(2,2,2-trifluoroethyl)-4,5-dihydro-1H-pyrazolo[4,3-c]quinolin-7-yl]pyridine-2-carboxylate] |
| 40% | Cc1ccnc(-c2ccc3c4[nH]ncc4c(=O)n(CC(F)(F)F)c3c2)c1 [Compound 187, 7-(4-methylpyrid-2-yl)-5-(2,2,2-trifluoroethyl)-1,5-dihydro-4H-pyrazolo[4,3-c]quinolin-4-one] |

Further lines, the compound ahead of its results:

| SMILES | inhibition at 0.1 µM |
| --- | --- |
| O=c1c2cn[nH]c2c2ccc(-c3ccccc3F)cc2n1CC(F)(F)F [Compound 3, 7-(2-fluorophenyl)-5-(2,2,2-trifluoroethyl)-1,5-dihydro-4H-pyrazolo[4,3-c]quinolin-4-one] | 34% |
| Cc1cc(-c2ccc3c4[nH]ncc4c(=O)n(CC(F)(F)F)c3c2)cnc1-n1cnnc1 [Compound 139, 7-(5-methyl-6-[1,2,4]triazol-4-ylpyrid-3-yl)-5-(2,2,2-trifluoroethyl)-1,5-dihydro-4H-pyrazolo[4,3-c]quinolin-4-one] | 44% |
| Cc1nc(N)ccc1-c1ccc2c3[nH]ncc3c(=O)n(CC(F)(F)F)c2c1 [Compound 142, 7-(6-amino-2-methylpyrid-3-yl)-5-(2,2,2-trifluoroethyl)-1,5-dihydro-4H-pyrazolo[4,3-c]quinolin-4-one] | 44% |
| CCc1ncncc1-c1ccc2c3[nH]ncc3c(=O)n(CC(F)(F)F)c2c1 [Compound 143, 7-(4-ethylpyrimidin-5-yl)-5-(2,2,2-trifluoroethyl)-1,5-dihydro-4H-pyrazolo[4,3-c]quinolin-4-one] | 43% |
| COc1ccnc(-c2ccc3c4[nH]ncc4c(=O)n(CC(F)(F)F)c3c2)c1 [Compound 145, 7-(4-methoxypyrid-2-yl)-5-(2,2,2-trifluoroethyl)-1,5-dihydro-4H-pyrazolo[4,3-c]quinolin-4-one] | 42% |
| CCc1nc(-c2ccccc2-c2ccc3c4[nH]ncc4c(=O)n(CC(F)(F)F)c3c2)no1 [Compound 150, 7-[2-(5-ethyl-[1,2,4]oxadiazol-3-yl)phenyl]-5-(2,2,2-trifluoroethyl)-1,5-dihydro-4H-pyrazolo[4,3-c]quinolin-4-one] | 42% |
| N#Cc1cccc(-c2ccc3c4[nH]ncc4c(=O)n(CC(F)(F)F)c3c2)n1 [Compound 153, 6-[4-oxo-5-(2,2,2-trifluoroethyl)-4,5-dihydro-1H-pyrazolo[4,3-c]quinolin-7-yl]pyridine-2-carbonitrile] | 41% |
| O=c1c2cn[nH]c2c2ccc(-c3cccc(CO)n3)cc2n1CC(F)(F)F [Compound 154, 7-(6-hydroxymethylpyrid-2-yl)-5-(2,2,2-trifluoroethyl)-1,5-dihydro-4H-pyrazolo[4,3-c]quinolin-4-one] | 41% |
| CN(C)CCOc1cccc(-c2ccc3c4[nH]ncc4c(=O)n(CC(F)(F)F)c3c2)c1 [Compound 155, 7-[3-(2-dimethylaminoethoxy)phenyl]-5-(2,2,2-trifluoroethyl)-1,5-dihydro-4H-pyrazolo[4,3-c]quinolin-4-one] | 41% |
| O=c1c2cn[nH]c2c2ccc(-c3ccc(CO)cn3)cc2n1CC(F)(F)F [Compound 157, 7-(5-hydroxymethylpyrid-2-yl)-5-(2,2,2-trifluoroethyl)-1,5-dihydro-4H-pyrazolo[4,3-c]quinolin-4-one] | 41% |
| O=c1c2cn[nH]c2c2ccc(-c3cncnc3-c3ccccc3)cc2n1CC(F)(F)F [Compound 160, 7-(4-phenylpyrimidin-5-yl)-5-(2,2,2-trifluoroethyl)-1,5-dihydro-4H-pyrazolo[4,3-c]quinolin-4-one] | 40% |
| COc1cc(C)c(-c2ccc3c4[nH]ncc4c(=O)n(CC(F)(F)F)c3c2)cn1 [Compound 161, 7-(6-methoxy-4-methylpyrid-3-yl)-5-(2,2,2-trifluoroethyl)-1,5-dihydro-4H-pyrazolo[4,3-c]quinolin-4-one] | 39% |
| O=c1c2cn[nH]c2c2ccc(-c3ccc(F)cn3)cc2n1CC(F)(F)F [Compound 165, 7-(5-fluoropyrid-2-yl)-5-(2,2,2-trifluoroethyl)-1,5-dihydro-4H-pyrazolo[4,3-c]quinolin-4-one] | 37% |

From US20140235616A1, “PYRAZOLOQUINOLINONE DERIVATIVES, PREPARATION THEREOF AND THERAPEUTIC USE THEREOF” (SANOFI, priority 2011, published 2014)
